Test results: patent publication US9833497B2, “Human originated EGF domain proteins and use of the same” (CHENGDU SOURCEBIO LIMITED-LIABILITY COMPANY, priority 2013, dated 2017)

Key:
Assay type in all cases: cell-based
E. coli DH5α = assay: Antibacterial activity: MIC and growth curve against E. coli DH5α in 96-well plate; settings: minimal inhibitory concentration against E. coli DH5α; 96-well plate, 5×10^5 CFU/mL, 37° C., judged after 8 h
Summary of the method: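 Log-phase DH5α (OD600 about 0.5, 37° C, 185 rpm in LB) was pelleted, resuspended in fresh LB and seeded at 5×10^5 CFU/mL with recombinant protein at 50, 25 and 12.5 μg/mL (two-fold series), in triplicate. Plates were shaken at 175 rpm, 37° C, and OD600 was read every 30 min. MIC was the lowest concentration with no growth.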

E. coli BL21 = assay: MIC against Gram-negative bacteria: E. coli BL21
Summary of the method: (§1)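 LB broth cultures at McFarland 0.5, spun down, resuspended, diluted to 5×10^5 CFU/mL final. Two-fold serial dilutions of purified human EGF domain proteins, triplicate. 37° C, 175 rpm shaking. Endpoint: no visible growth.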

Pseudomonas aeruginosa = assay: MIC against Gram-negative bacteria: Pseudomonas aeruginosa
Summary of the method: as §1

Klebsiella pneumonia = assay: MIC against Gram-negative bacteria: Klebsiella pneumonia
Summary of the method: as §1

Enterobacter cloacae = assay: MIC against Gram-negative bacteria: Enterobacter cloacae
Summary of the method: as §1

Aeromonas hydrophila = assay: MIC against Gram-negative bacteria: Aeromonas hydrophila
Summary of the method: as §1

Citrobacter diversus = assay: MIC against Gram-negative bacteria: Citrobacter diversus
Summary of the method: as §1

Moraxella catarrhalis = assay: MIC against Gram-negative bacteria: Moraxella catarrhalis
Summary of the method: as §1

Proteus mirabilis = assay: MIC against Gram-negative bacteria: Proteus mirabilis
Summary of the method: as §1

Proteus vulgaris = assay: MIC against Gram-negative bacteria: Proteus vulgaris
Summary of the method: as §1

Serratia marcescens = assay: MIC against Gram-negative bacteria: Serratia marcescens
Summary of the method: as §1

[1] = 10 h cultivation at 37° C., 5×10^5 CFU/mL, two-fold serial dilution
[2] = E. coli BL21, 96-well plate, 5×10^5 CFU/mL, 37° C., 10 h
[3] = Pseudomonas aeruginosa, 96-well plate, 5×10^5 CFU/mL, 37° C., 10 h
[4] = Klebsiella pneumonia, 96-well plate, 5×10^5 CFU/mL, 37° C., 10 h
[5] = Enterobacter cloacae, 96-well plate, 5×10^5 CFU/mL, 37° C., 10 h
[6] = Aeromonas hydrophila, 96-well plate, 5×10^5 CFU/mL, 37° C., 10 h
[7] = Citrobacter diversus, 96-well plate, 5×10^5 CFU/mL, 37° C., 10 h
[8] = Moraxella catarrhalis, 96-well plate, 5×10^5 CFU/mL, 37° C., 10 h
[9] = Proteus mirabilis, 96-well plate, 5×10^5 CFU/mL, 37° C., 10 h
[10] = Proteus vulgaris, 96-well plate, 5×10^5 CFU/mL, 37° C., 10 h
[11] = Serratia marcescens, 96-well plate, 5×10^5 CFU/mL, 37° C., 10 h
[12] = 96-well plate, 5×10^5 CFU/mL, 37° C., 10 h

PRT1176 (NIDDCSPNNCSHGGTCQDLVNGFKCVCPPQWTGKTCQ; listed as Homo sapiens)
12.5 µg/mL: MIC (E. coli DH5α) | MIC P. aeruginosa (Pseudomonas aeruginosa; [1]) | MIC E. cloacae (Enterobacter cloacae; [1]) | MIC M. catarrhalis (Moraxella catarrhalis; [1]) | MIC S. marcescens (Serratia marcescens; [1])
50 µg/mL: MIC E. coli BL21 (E. coli BL21; [1]) | MIC K. pneumonia (Klebsiella pneumonia; [1]) | MIC C. diversus (Citrobacter diversus; [1]) | MIC P. mirabilis (Proteus mirabilis; [1])
25 µg/mL: MIC A. hydrophila (Aeromonas hydrophila; [1]) | MIC P. vulgaris (Proteus vulgaris; [1])

PRT107 (DRCLPSYCEHGGECSQSWDTFSCDCLGTGYTGETC; listed as Homo sapiens)
50 µg/mL: MIC (μg/mL) A. hydrophila (Aeromonas hydrophila; [6]) | MIC (μg/mL) P. vulgaris (Proteus vulgaris; [10])
12.5 µg/mL: MIC (E. coli DH5α) | MIC (μg/mL) E. coli BL21 (E. coli BL21; [2]) | MIC (μg/mL) P. aeruginosa (Pseudomonas aeruginosa; [3]) | MIC (μg/mL) K. pneumonia (Klebsiella pneumonia; [4]) | MIC (μg/mL) E. cloacae (Enterobacter cloacae; [5]) | MIC (μg/mL) M. catarrhalis (Moraxella catarrhalis; [8]) | MIC (μg/mL) S. marcescens (Serratia marcescens; [11])
25 µg/mL: MIC (μg/mL) C. diversus (Citrobacter diversus; [7]) | MIC (μg/mL) P. mirabilis (Proteus mirabilis; [9])

PRT956 (NIDDCAFASCTPGSTCIDRVASFSCMCPEGKAGLLCH; listed as Homo sapiens)
50 µg/mL: MIC (Proteus vulgaris; P. vulgaris, 10 h cultivation at 37° C.)
12.5 µg/mL: MIC (E. coli DH5α) | MIC (E. coli BL21; E. coli BL21, 10 h cultivation at 37° C.) | MIC (Pseudomonas aeruginosa; P. aeruginosa, 10 h cultivation at 37° C.) | MIC (Enterobacter cloacae; E. cloacae, 10 h cultivation at 37° C.) | MIC (Moraxella catarrhalis; M. catarrhalis, 10 h cultivation at 37° C.)
25 µg/mL: MIC (Klebsiella pneumonia; K. pneumonia, 10 h cultivation at 37° C.) | MIC (Aeromonas hydrophila; A. hydrophila, 10 h cultivation at 37° C.) | MIC (Citrobacter diversus; C. diversus, 10 h cultivation at 37° C.) | MIC (Proteus mirabilis; P. mirabilis, 10 h cultivation at 37° C.) | MIC (Serratia marcescens; S. marcescens, 10 h cultivation at 37° C.)

PRT1254 (DVDECSEGTDDCHIDAICQNTPKSYKCLCKPGYKGEGKQCE; listed as Homo sapiens)
12.5 µg/mL: MIC (E. coli DH5α) | MIC against E. cloacae (Enterobacter cloacae; [5]) | MIC against C. diversus (Citrobacter diversus; [7]) | MIC against P. mirabilis (Proteus mirabilis; [9])
50 µg/mL: MIC against P. aeruginosa (Pseudomonas aeruginosa; [3]) | MIC against A. hydrophila (Aeromonas hydrophila; [6]) | MIC against M. catarrhalis (Moraxella catarrhalis; [8]) | MIC against S. marcescens (Serratia marcescens; [11])
25 µg/mL: MIC against E. coli BL21 (E. coli BL21; [2]) | MIC against K. pneumonia (Klebsiella pneumonia; [4]) | MIC against P. vulgaris (Proteus vulgaris; [10])

PRT695 (DVDECHRVPPPCDLGRCENTPGSFLCVCPAGYQAAPHGASCQ; listed as Homo sapiens)
50 µg/mL: MIC C. diversus (Citrobacter diversus; [12]) | MIC M. catarrhalis (Moraxella catarrhalis; [12]) | MIC P. vulgaris (Proteus vulgaris; [12])
12.5 µg/mL: MIC E. coli BL21 (E. coli BL21; [12]) | MIC E. cloacae (Enterobacter cloacae; [12]) | MIC P. mirabilis (Proteus mirabilis; [12]) | MIC S. marcescens (Serratia marcescens; [12])
25 µg/mL: MIC (E. coli DH5α) | MIC P. aeruginosa (Pseudomonas aeruginosa; [12]) | MIC K. pneumonia (Klebsiella pneumonia; [12]) | MIC A. hydrophila (Aeromonas hydrophila; [12])

PRT502 (CECHGHAAECNVHGVCIACAHNTTGVHCEQCLPGFYGEPSRGTPGDCQP; listed as Homo sapiens)
50 µg/mL: MIC against P. vulgaris (Proteus vulgaris; [12])
12.5 µg/mL: MIC against E. coli BL21 (E. coli BL21; [12]) | MIC against P. aeruginosa (Pseudomonas aeruginosa; [12]) | MIC against K. pneumonia (Klebsiella pneumonia; [12]) | MIC against E. cloacae (Enterobacter cloacae; [12]) | MIC against A. hydrophila (Aeromonas hydrophila; [12]) | MIC against C. diversus (Citrobacter diversus; [12]) | MIC against M. catarrhalis (Moraxella catarrhalis; [12]) | MIC against P. mirabilis (Proteus mirabilis; [12])
25 µg/mL: MIC (E. coli DH5α) | MIC against S. marcescens (Serratia marcescens; [12])
